pEC50: −log10 of the molar value.
How the values were obtained:
[1] = target: T1, human GPCR sphingosine 1-phosphate receptor 1 (Homo sapiens, UniProt P21453); test: S1PR1 selectivity Ca2+ flux assay (antagonist readout); assay type: cell-based; settings: antagonist readout, CHO cells overexpressing human S1PR1 and Gq, S1P at EC80 (6 nM); read-out: S1P1 EC50 (nM), S1P1 antagonist EC50
T1 construct: host or cells: CHO
Method in brief: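 Antagonist mode: S1P challenge follows 15 min compound preincubation at 37 °C. Cells are CHO stably expressing human S1PR1, serum-starved 1 h (0.1% FAF BSA), loaded with Fluo 8. Peak-over-baseline fluorescence ratio is normalized to positive/negative controls; IC50 from logistic curve fit.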

[2] = target: T2, human GPCR sphingosine 1-phosphate receptor 5 (Homo sapiens, UniProt Q9H228); test: S1PR5 selectivity Ca2+ flux assay (antagonist readout); assay type: cell-based; settings: CHO cells overexpressing human S1PR5 and Gq, agonist at EC80 (20 nM), read-out: S1P5 EC50 (nM), S1P5 antagonist EC50
T2 construct: host or cells: CHO
T2 sequence (Q9H228 whole entry): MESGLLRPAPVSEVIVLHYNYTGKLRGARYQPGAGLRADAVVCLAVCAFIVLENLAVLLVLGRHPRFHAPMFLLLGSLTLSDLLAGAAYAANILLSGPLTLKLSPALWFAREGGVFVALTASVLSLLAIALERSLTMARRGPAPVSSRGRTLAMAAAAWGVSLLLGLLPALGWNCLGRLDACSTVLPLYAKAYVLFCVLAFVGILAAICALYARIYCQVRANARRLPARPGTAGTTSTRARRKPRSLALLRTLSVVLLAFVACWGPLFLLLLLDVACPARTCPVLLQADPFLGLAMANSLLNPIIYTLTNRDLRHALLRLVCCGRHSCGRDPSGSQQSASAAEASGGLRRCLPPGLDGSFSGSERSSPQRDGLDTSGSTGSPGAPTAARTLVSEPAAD
Method in brief: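 Antagonist readout: after 15 min compound preincubation at 37° C, human S1PR5/Gq CHO cells loaded with Fluo 8 dye received an EC80 challenge of S1PR5-specific agonist, and fluorescence was recorded for 3 min. Maximal-over-background ratios, normalized as % inhibition, gave IC50 by logistic fit.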

HFL-1 cells [3] = test: IL-8 production assay (S1P induced IL-8); assay type: cell-based; settings: Homo sapiens, HFL1; S1P (1 μM) induced IL-8 in HFL-1 cells, starvation medium without HSA; read-out: IL8 EC50
Method in brief: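 HFL-1 fibroblasts in low-serum medium were pretreated 1 h with a 10-point 1/3 series of compound starting at 30 μM (0.3% DMSO).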

[4] = target: T3, human GPCR sphingosine 1-phosphate receptor 2 (Homo sapiens, UniProt O95136); test: S1PR2 antagonist Ca2+ flux assay; assay type: cell-based; settings: antagonist mode, CHO-S1PR2 cells, S1P at EC80, Ca2+ fluorescence; read-out: S1P2 EC50 (nM), S1P2 antagonist EC50
T3 construct: host or cells: CHO
T3 sequence (O95136 whole entry): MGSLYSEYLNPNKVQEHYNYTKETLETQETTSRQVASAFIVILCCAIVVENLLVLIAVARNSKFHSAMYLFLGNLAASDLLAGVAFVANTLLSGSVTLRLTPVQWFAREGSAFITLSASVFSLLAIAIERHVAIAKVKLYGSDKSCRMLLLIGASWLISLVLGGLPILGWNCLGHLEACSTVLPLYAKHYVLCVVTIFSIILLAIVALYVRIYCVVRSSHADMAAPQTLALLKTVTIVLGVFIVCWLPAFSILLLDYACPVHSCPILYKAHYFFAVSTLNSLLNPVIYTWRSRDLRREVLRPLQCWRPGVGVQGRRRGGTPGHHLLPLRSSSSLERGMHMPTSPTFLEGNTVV
Method in brief: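 Antagonist mode: 15 min after compound addition, S1P (EC80) stimulates Fluo8-loaded, 1 h-starved CHO-S1PR2 cells, Ca2+ read over 3 min; a prior 3-min read checks compound agonism. EC50 from peak/baseline fluorescence ratio, normalised versus vehicle and S1P EC50 (antagonist) or EC100 (agonist).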

HFL-1 cells [5] = test: IL8 assay in the presence of Human Serum Albumin; settings: HFL1, read-out: HSA IL8 EC50
S1PR2 = target: T4, S1PR2 (Homo sapiens, UniProt O95136); test: S1PR2 binding assay (competition with radioactively labeled S1P, SpA); settings: membranes from stable cell line over expressing S1PR2, SpA beads; read-out: S1P2 EC50 (nM), S1PR2 binding EC50
T4 construct: expressed in transfected cells
T4 sequence (O95136 whole entry): as above
Method in brief: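 Scintillation proximity read-out after 2 h room-temperature incubation of compound, [3H]S1P and S1PR2-overexpressing cell membranes on WGA-coated beads. Buffer: 20 mM Tris pH 7.5, 100 mM NaCl, 10 mM MgCl2, 1 mM Na3VO4, 0.4% fatty-acid-free BSA; plates counted immediately after centrifugation.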

T1 sequence (P21453 whole entry): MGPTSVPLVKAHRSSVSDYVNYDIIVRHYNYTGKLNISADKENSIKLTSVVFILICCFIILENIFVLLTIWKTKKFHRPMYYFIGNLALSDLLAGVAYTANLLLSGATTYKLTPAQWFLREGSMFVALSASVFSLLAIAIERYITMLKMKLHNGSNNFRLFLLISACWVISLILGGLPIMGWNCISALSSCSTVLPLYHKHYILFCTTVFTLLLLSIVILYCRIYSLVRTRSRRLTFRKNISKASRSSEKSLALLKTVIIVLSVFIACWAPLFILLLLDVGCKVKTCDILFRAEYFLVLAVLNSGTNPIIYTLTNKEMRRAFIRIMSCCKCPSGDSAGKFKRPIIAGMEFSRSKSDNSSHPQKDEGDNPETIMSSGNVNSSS

Row | SMILES | EC50 [1] | EC50 [2] | pEC50 (HFL-1 cells [3]) | EC50 [4] | pEC50 (HFL-1 cells [5]) | EC50 (S1PR2)
1 | CC(C(=O)O)n1nc(Cn2cc3cc(OCC4CC4)c(Cl)cc3n2)c2cc(C#N)ccc2c1=O (stereo not drawn) [Compound 92, 2-[4-[[6-chloro-5-(cyclopropylmethoxy)indazol-2-yl]methyl]-6-cyano-1-oxo-phthalazin-2-yl]propanoic acid] | 13200 nM | 19800 nM | 8.36 | 8.99 nM | 6.26 | 32.1 nM
2 | N#Cc1ccc2c(=O)n(CC(=O)O)nc(Cc3nc4cc(Cl)c(OCC(F)F)cc4[nH]3)c2c1 [compound 23, 2-[4-[[5-chloro-6-(2,2-difluoro-ethoxy)-1H-benzimidazol-2-yl]methyl]-6-cyano-1-oxo-phthalazin-2-yl]acetic acid] | ≥ 19800 nM | 19800 nM | 7.24 | 14.6 nM | 6.53 | 306 nM
3 | O=C(O)Cn1nc(Cc2nc3cc(OCC(F)F)c(Cl)cc3[nH]2)c2c(F)ccc(F)c2c1=O [Compound 126, 2-[4-[[6-chloro-5-(2,2-difluoroethoxy)-1H-benzimidazol-2-yl]methyl]-5,8-difluoro-1-oxo-phthalazin-2-yl]acetic acid] | ≥ 19800 nM | 19800 nM | 8.22 | 19.1 nM | 6.95 | 93.5 nM
4 | N#Cc1cc2[nH]c(Cc3nn(C4CN(CC(=O)O)C4)c(=O)c4ccccc34)nc2cc1OCC(F)F [Compound 69, 2-[3-[4-[[6-cyano-5-(2,2-difluoroethoxy)-1H-benzimidazol-2-yl]-methyl]-1-oxo-phthalazin-2-yl]azetidin-1-yl]acetic acid] | ≥ 19800 nM | 19800 nM | 6.96 | 238 nM | 7.02 | 272 nM
5 | CC1(C)CCN(C(=O)Cn2nc(Cc3nc4cc(OCC(F)F)c(C#N)cc4[nH]3)c3ccccc3c2=O)CC1 [Compound 234, 6-(2,2-difluoroethoxy)-2-[[3-[2-(4,4-dimethyl-1-piperidyl)-2-oxo-ethyl]-4-oxo-phthalazin-1-yl]methyl]-3H-benzimidazole-5-carbonitrile] | ≥ 19800 nM | 19800 nM | 7.47 | 13 nM | 6.42 | 270 nM
6 | O=C(Cn1nc(Cc2nc3cc(OCC(F)F)c(F)cc3[nH]2)c2ccccc2c1=O)N1CCOCC1 [Compound 156, 4-[[5-(2,2-difluoroethoxy)-6-fluoro-1H-benzimidazol-2-yl]methyl]-2-(2-morpholino-2-oxo-ethyl)phthalazin-1-one] | ≥ 19800 nM | 19800 nM | 6.23 | 59.8 nM | 6.06 | 647 nM
7 | N#CC1(COc2cc3[nH]c(Cc4nn(CC(=O)N5CCOCC5)c(=O)c5ccccc45)nc3cc2Cl)CC1 [Compound 161, 1-[[6-chloro-2-[[3-(2-morpholino-2-oxo-ethyl)-4-oxo-phthalazin-1-yl]methyl]-3H-benzimidazol-5-yl)oxymethyl]cyclopropanecarbonitrile] | ≥ 19800 nM | 19800 nM | 7.32 | 15.6 nM | 6.97 | 154 nM
8 | O=C(Cn1nc(Cc2nc3cc(OCC(F)F)c(Cl)cc3[nH]2)c2c(F)ccc(F)c2c1=O)N1CCOCC1 [Compound 152, 4-[[6-chloro-5-(2,2-difluoroethoxy)-1H-benzimidazol-2-yl]methyl]-5,8-difluoro-2-(2-morpholino-2-oxo-ethyl)phthalazin-1-one] | ≥ 19800 nM | 19800 nM | 8.18 | 19.1 nM | 6.70 | 64 nM
9 | N#Cc1cc2[nH]c(Cc3nn(C4CCNC4)c(=O)c4ccccc34)nc2cc1OCC(F)F (stereo not drawn) [Compound 64, 6-(2,2-difluoroethoxy)-2-[(4-oxo-3-pyrrolidin-3-yl-phthalazin-1-yl)methyl]-3H-benzimidazole-5-carbonitrile] | ≥ 19800 nM | 19800 nM | 7.59 | 137 nM | 7.48 | 131 nM

— patent publication US20210315893A1 (Galapagos NV, priority 2017, published 2021)
